Experimental data taken from PubChem BioAssay (NCI).
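Briefly, cells in 96-well plates were exposed to five compound concentrations for 48 h, and endpoints were estimated by linear interpolation. At the TGI there is no net growth.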

Tests used:
Test in all cases: NCI anticancer screen, dose series, 48 h
MDA-MB-231 breast = system: MDA-MB-231 breast
KM12 colon = system: KM12 colon
MDA-MB-435 = system: MDA-MB-435
HS 578T breast = system: HS 578T breast
NCI-H226 lung = system: NCI-H226 lung
K-562 leukemia = system: K-562 leukemia
RPMI-8226 leukemia = system: RPMI-8226 leukemia
SNB-19 CNS = system: SNB-19 CNS
OVCAR-4 ovarian = system: OVCAR-4 ovarian
MDA-N = system: MDA-N
A498 renal = system: A498 renal
SK-MEL-28 melanoma = system: SK-MEL-28 melanoma
NCI-H522 lung = system: NCI-H522 lung
HCT-15 colon = system: HCT-15 colon
OVCAR-5 ovarian = system: OVCAR-5 ovarian
COLO 205 colon = system: COLO 205 colon
CAKI-1 renal = system: CAKI-1 renal
LOX IMVI melanoma = system: LOX IMVI melanoma
SF-295 CNS = system: SF-295 CNS
SNB-75 CNS = system: SNB-75 CNS
SK-MEL-2 melanoma = system: SK-MEL-2 melanoma
NCI/ADR-RES ovarian = system: NCI/ADR-RES ovarian
UO-31 renal = system: UO-31 renal
SF-539 CNS = system: SF-539 CNS
UACC-62 melanoma = system: UACC-62 melanoma
NCI-H23 lung = system: NCI-H23 lung
HCC-2998 colon = system: HCC-2998 colon
A549 NSCLC = system: A549 NSCLC
SR leukemia = system: SR leukemia
IGROV1 ovarian = system: IGROV1 ovarian
ACHN renal = system: ACHN renal
SK-OV-3 ovarian = system: SK-OV-3 ovarian
OVCAR-8 ovarian = system: OVCAR-8 ovarian
TK-10 renal = system: TK-10 renal
M14 melanoma = system: M14 melanoma
DU-145 prostate = system: DU-145 prostate
EKVX NSCLC = system: EKVX NSCLC
UACC-257 melanoma = system: UACC-257 melanoma
NCI-H460 lung = system: NCI-H460 lung
T-47D breast = system: T-47D breast
SK-MEL-5 melanoma = system: SK-MEL-5 melanoma
PC-3 prostate = system: PC-3 prostate
HOP-62 NSCLC = system: HOP-62 NSCLC
SN12C renal = system: SN12C renal
U251 CNS = system: U251 CNS
SW-620 colon = system: SW-620 colon
OVCAR-3 ovarian = system: OVCAR-3 ovarian
CCRF-CEM leukemia = system: CCRF-CEM leukemia
BT-549 breast = system: BT-549 breast
HL-60(TB) leukemia = system: HL-60(TB) leukemia
RXF 393 renal = system: RXF 393 renal
HT29 colon = system: HT29 colon
MOLT-4 leukemia = system: MOLT-4 leukemia
HOP-92 NSCLC = system: HOP-92 NSCLC
HCT-116 colon = system: HCT-116 colon
SF-268 CNS = system: SF-268 CNS
MCF7 breast = system: MCF7 breast
786-0 renal = system: 786-0 renal

## O=C(Cc1ccc(OCc2cccc(Cl)c2)cc1)NO
MDA-MB-231 breast
  TGI: > 100 µM
KM12 colon
  TGI: > 100 µM
MDA-MB-435
  TGI: > 100 µM
HS 578T breast
  TGI: > 100 µM
NCI-H226 lung
  TGI: 65.4 µM
K-562 leukemia
  TGI: > 100 µM
RPMI-8226 leukemia
  TGI: 50.8 µM
SNB-19 CNS
  TGI: > 100 µM
OVCAR-4 ovarian
  TGI: 82.7 µM
MDA-N
  TGI: > 100 µM
A498 renal
  TGI: 27 µM
SK-MEL-28 melanoma
  TGI: > 100 µM
NCI-H522 lung
  TGI: > 100 µM
HCT-15 colon
  TGI: > 100 µM
OVCAR-5 ovarian
  TGI: > 100 µM
COLO 205 colon
  TGI: > 100 µM
CAKI-1 renal
  TGI: 68.2 µM
LOX IMVI melanoma
  TGI: 49 µM
SF-295 CNS
  TGI: > 100 µM
SNB-75 CNS
  TGI: > 100 µM
SK-MEL-2 melanoma
  TGI: > 100 µM
NCI/ADR-RES ovarian
  TGI: 39.3 µM
UO-31 renal
  TGI: 50.4 µM
SF-539 CNS
  TGI: > 100 µM
UACC-62 melanoma
  TGI: 55.4 µM
NCI-H23 lung
  TGI: > 100 µM
HCC-2998 colon
  TGI: > 100 µM
A549 NSCLC
  TGI: > 100 µM
SR leukemia
  TGI: 32.5 µM
IGROV1 ovarian
  TGI: > 100 µM
ACHN renal
  TGI: 86 µM
SK-OV-3 ovarian
  TGI: > 100 µM
OVCAR-8 ovarian
  TGI: 34.5 µM
TK-10 renal
  TGI: > 100 µM
M14 melanoma
  TGI: > 100 µM
DU-145 prostate
  TGI: 66.2 µM
EKVX NSCLC
  TGI: > 100 µM
UACC-257 melanoma
  TGI: > 100 µM
NCI-H460 lung
  TGI: > 100 µM
T-47D breast
  TGI: 46.2 µM
SK-MEL-5 melanoma
  TGI: > 100 µM
PC-3 prostate
  TGI: > 100 µM
HOP-62 NSCLC
  TGI: > 100 µM
SN12C renal
  TGI: 76.5 µM
U251 CNS
  TGI: > 100 µM
SW-620 colon
  TGI: > 100 µM
OVCAR-3 ovarian
  TGI: > 100 µM
CCRF-CEM leukemia
  TGI: 42.5 µM
BT-549 breast
  TGI: > 100 µM
HL-60(TB) leukemia
  TGI: 44.9 µM
RXF 393 renal
  TGI: > 100 µM
HT29 colon
  TGI: > 100 µM
MOLT-4 leukemia
  TGI: 33.1 µM
HOP-92 NSCLC
  TGI: > 100 µM
HCT-116 colon
  TGI: > 100 µM
SF-268 CNS
  TGI: > 100 µM
MCF7 breast
  TGI: > 100 µM
786-0 renal
  TGI: 43.5 µM

## O=C(O)CCc1nc2c(n1Cc1ccccc1)C(=O)c1ccccc1C2=O
MDA-MB-231 breast
  TGI: > 100 µM
KM12 colon
  TGI: > 100 µM
MDA-MB-435
  TGI: 35.8 µM
HS 578T breast
  TGI: > 100 µM
NCI-H226 lung
  TGI: > 100 µM
K-562 leukemia
  TGI: > 100 µM
RPMI-8226 leukemia
  TGI: > 100 µM
SNB-19 CNS
  TGI: > 100 µM
OVCAR-4 ovarian
  TGI: > 100 µM
MDA-N
  TGI: 52.8 µM
A498 renal
  TGI: > 100 µM
SK-MEL-28 melanoma
  TGI: > 100 µM
NCI-H522 lung
  TGI: 72.1 µM
HCT-15 colon
  TGI: > 100 µM
OVCAR-5 ovarian
  TGI: > 100 µM
COLO 205 colon
  TGI: > 100 µM
CAKI-1 renal
  TGI: > 100 µM
LOX IMVI melanoma
  TGI: > 100 µM
SF-295 CNS
  TGI: > 100 µM
SNB-75 CNS
  TGI: > 100 µM
SK-MEL-2 melanoma
  TGI: 78.1 µM
NCI/ADR-RES ovarian
  TGI: > 100 µM
UO-31 renal
  TGI: > 100 µM
SF-539 CNS
  TGI: > 100 µM
UACC-62 melanoma
  TGI: > 100 µM
NCI-H23 lung
  TGI: > 100 µM
HCC-2998 colon
  TGI: > 100 µM
A549 NSCLC
  TGI: > 100 µM
SR leukemia
  TGI: > 100 µM
IGROV1 ovarian
  TGI: > 100 µM
ACHN renal
  TGI: > 100 µM
SK-OV-3 ovarian
  TGI: > 100 µM
OVCAR-8 ovarian
  TGI: > 100 µM
TK-10 renal
  TGI: > 100 µM
M14 melanoma
  TGI: 50.7 µM
DU-145 prostate
  TGI: > 100 µM
EKVX NSCLC
  TGI: > 100 µM
UACC-257 melanoma
  TGI: > 100 µM
NCI-H460 lung
  TGI: > 100 µM
T-47D breast
  TGI: > 100 µM
SK-MEL-5 melanoma
  TGI: 43.5 µM
PC-3 prostate
  TGI: > 100 µM
HOP-62 NSCLC
  TGI: > 100 µM
SN12C renal
  TGI: > 100 µM
U251 CNS
  TGI: > 100 µM
SW-620 colon
  TGI: > 100 µM
OVCAR-3 ovarian
  TGI: 85.9 µM
CCRF-CEM leukemia
  TGI: > 100 µM
BT-549 breast
  TGI: > 100 µM
HL-60(TB) leukemia
  TGI: > 100 µM
RXF 393 renal
  TGI: > 100 µM
HT29 colon
  TGI: > 100 µM
MOLT-4 leukemia
  TGI: > 100 µM
HOP-92 NSCLC
  TGI: 66.4 µM
HCT-116 colon
  TGI: > 100 µM
SF-268 CNS
  TGI: > 100 µM
MCF7 breast
  TGI: > 100 µM
786-0 renal
  TGI: > 100 µM

## C=CC(O)C#Cc1cnc(OC)nc1OC (configuration not stated)
MDA-MB-231 breast
  TGI: > 100 µM
KM12 colon
  TGI: > 100 µM
MDA-MB-435
  TGI: > 100 µM
HS 578T breast
  TGI: > 100 µM
NCI-H226 lung
  TGI: > 100 µM
K-562 leukemia
  TGI: 66.6 µM
SNB-19 CNS
  TGI: > 100 µM
OVCAR-4 ovarian
  TGI: > 100 µM
MDA-N
  TGI: > 100 µM
A498 renal
  TGI: 33 µM
SK-MEL-28 melanoma
  TGI: > 100 µM
NCI-H522 lung
  TGI: > 100 µM
HCT-15 colon
  TGI: > 100 µM
OVCAR-5 ovarian
  TGI: > 100 µM
COLO 205 colon
  TGI: > 100 µM
CAKI-1 renal
  TGI: > 100 µM
LOX IMVI melanoma
  TGI: > 100 µM
SF-295 CNS
  TGI: > 100 µM
SNB-75 CNS
  TGI: > 100 µM
SK-MEL-2 melanoma
  TGI: > 100 µM
NCI/ADR-RES ovarian
  TGI: > 100 µM
UO-31 renal
  TGI: > 100 µM
SF-539 CNS
  TGI: > 100 µM
UACC-62 melanoma
  TGI: > 100 µM
NCI-H23 lung
  TGI: > 100 µM
HCC-2998 colon
  TGI: > 100 µM
A549 NSCLC
  TGI: > 100 µM
SR leukemia
  TGI: > 100 µM
IGROV1 ovarian
  TGI: > 100 µM
ACHN renal
  TGI: > 100 µM
OVCAR-8 ovarian
  TGI: > 100 µM
TK-10 renal
  TGI: > 100 µM
M14 melanoma
  TGI: > 100 µM
DU-145 prostate
  TGI: > 100 µM
EKVX NSCLC
  TGI: > 100 µM
UACC-257 melanoma
  TGI: > 100 µM
NCI-H460 lung
  TGI: > 100 µM
T-47D breast
  TGI: > 100 µM
SK-MEL-5 melanoma
  TGI: > 100 µM
PC-3 prostate
  TGI: > 100 µM
HOP-62 NSCLC
  TGI: > 100 µM
SN12C renal
  TGI: > 100 µM
U251 CNS
  TGI: > 100 µM
SW-620 colon
  TGI: > 100 µM
OVCAR-3 ovarian
  TGI: > 100 µM
CCRF-CEM leukemia
  TGI: 47.9 µM
BT-549 breast
  TGI: > 100 µM
HL-60(TB) leukemia
  TGI: 43.9 µM
RXF 393 renal
  TGI: > 100 µM
HT29 colon
  TGI: > 100 µM
MOLT-4 leukemia
  TGI: > 100 µM
HOP-92 NSCLC
  TGI: > 100 µM
HCT-116 colon
  TGI: > 100 µM
SF-268 CNS
  TGI: > 100 µM
MCF7 breast
  TGI: > 100 µM
786-0 renal
  TGI: > 100 µM
